The values that follow come from ChEMBL document CHEMBL1201862, “PubChem BioAssay data set” (2004).

Test systems include NCI-H522; A549; HL-60; HCT-15; NCI-H23; A498; SR; RXF 393; COLO 205; SK-OV-3; MCF7; Malme-3M; SF-268; CCRF-CEM; UO-31; SK-MEL-28; SN12C; NCI/ADR-RES; SK-MEL-5.
Assay in all cases: inhibition of tumour cell growth, NCI panel, 48 h

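Where inhibition never reached the appropriate level, the endpoint shown equals the highest concentration tested. Otherwise, values were interpolated linearly from a five-concentration, 48-hour dose response in 96-well plates. GI50 = concentration required for 50% inhibition of growth.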 The source made the active and inactive calls. Cut-off read from the data, not from the text of the source: active = GI50 up to about 1.1 µM and inactive = higher.

With `COc1cc2c(c(O)c1OC)C(O)C1CCC(=O)N1C2c1cccc2ccccc12` (stereo not drawn), the GI50 was 27.7 µM (inactive) in the assay on NCI-H522; 99.1 µM (inactive) in the assay with A549; > 100 µM (inactive) in the assay on HL-60; > 100 µM with HCT-15; > 100 µM (inactive) with NCI-H23; > 100 µM (inactive) in the assay with A498. The GI50 is > 100 µM (inactive) with SR; 57.9 µM (inactive) with RXF 393; > 100 µM (inactive) in the assay on COLO 205; 56.1 µM (inactive) in the assay on SK-OV-3; > 100 µM (inactive) in the assay with MCF7; 36.9 µM (inactive) in the assay with Malme-3M. Moreover, the GI50 in the assay with SF-268 is > 100 µM (inactive); with CCRF-CEM, 81.7 µM (inactive); in the assay with UO-31, 91.8 µM (inactive); with SK-MEL-28 it was > 100 µM (inactive); in the assay with SN12C it was > 100 µM (inactive); in the assay on NCI/ADR-RES, 54.6 µM (inactive). The GI50 in the assay on SK-MEL-5 is > 100 µM (inactive).

With `CCSCCCCC(c1ccc(O)cc1)C(C)(CC)c1ccc(O)cc1` (stereo not drawn), the GI50 is 17.7 µM (inactive) with NCI-H522; 25.4 µM (inactive) with A549; > 100 µM (inactive) with HL-60; 18.4 µM in the assay with HCT-15; 19.6 µM (inactive) with NCI-H23; > 100 µM (inactive) in the assay on A498. For the same molecule, the GI50 in the assay with SR is 38.7 µM (inactive); with RXF 393, 6.92 µM (inactive); in the assay on COLO 205, 20.4 µM (inactive); with SK-OV-3, 21.1 µM (inactive); with MCF7 it was 27.4 µM (inactive); in the assay on Malme-3M it was 20.3 µM (inactive). For the same molecule, the GI50 was 20.3 µM (inactive) in the assay with SF-268; 18.6 µM (inactive) in the assay with CCRF-CEM; 19.6 µM (inactive) with UO-31; 18 µM (inactive) in the assay on SK-MEL-28; 33.1 µM (inactive) with SN12C; 20.3 µM (inactive) in the assay with NCI/ADR-RES. Besides, the GI50 in the assay on SK-MEL-5 is 18.2 µM (inactive).

With `Cc1cc(/N=C/c2ccc(Cl)cc2)n(-c2ccccc2)n1`, the GI50 in the assay on NCI-H522 was 23.1 µM (inactive); with A549, 45.3 µM (inactive); in the assay on HL-60 it was 26 µM (inactive); with HCT-15, 19 µM; with NCI-H23, 42 µM (inactive); with A498, 21.9 µM (inactive). The GI50 with SR is 31 µM (inactive); in the assay with RXF 393, 22.9 µM (inactive); in the assay on COLO 205, 23.9 µM (inactive); with SK-OV-3, 67.9 µM (inactive); in the assay on MCF7, 32.2 µM (inactive); in the assay with Malme-3M it was 49.3 µM (inactive). In addition, the GI50 was 69.3 µM (inactive) with SF-268; 26.5 µM (inactive) in the assay on CCRF-CEM; 59 µM (inactive) in the assay with UO-31; 44.6 µM (inactive) in the assay on SK-MEL-28; 39.4 µM (inactive) in the assay on SN12C; 40.9 µM (inactive) in the assay on NCI/ADR-RES. Besides, the GI50 in the assay on SK-MEL-5 was 27.6 µM (inactive).

For the molecule `O=C(C/C(=N/O)C(=O)NC1=C(Cl)C(=O)c2ccccc2C1=O)CC(c1ccccc1)c1c(O)c2ccccc2oc1=O` (stereo not drawn), the GI50 is 13.2 µM (inactive) with NCI-H522; 5.69 µM (inactive) in the assay on A549; 2.39 µM (inactive) in the assay with HL-60; 3.16 µM in the assay with HCT-15; 3.63 µM (inactive) in the assay on NCI-H23; 46.6 µM (inactive) in the assay on A498. Further, the GI50 with SR is 7.35 µM (inactive); with RXF 393, 13.2 µM (inactive); with COLO 205, 13.4 µM (inactive); with SK-OV-3 it was 39 µM (inactive); with MCF7, 6.85 µM (inactive); in the assay on Malme-3M, 2.08 µM (inactive). Besides, the GI50 in the assay with SF-268 was 7.35 µM (inactive); in the assay on CCRF-CEM, 4.56 µM (inactive); with UO-31 it was 14.9 µM (inactive); with SK-MEL-28 it was 7.43 µM (inactive); in the assay with SN12C it was 8.97 µM (inactive); with NCI/ADR-RES, 11.2 µM (inactive). The GI50 with SK-MEL-5 was 1.12 µM (inactive).

Take `COC(=O)C1(CCC(=O)N(C)c2ccccc2)NNC2C(=O)N(c3ccccc3)C(=O)C21` (stereo not drawn): the GI50 with NCI-H522 was > 10 µM (inactive); in the assay with A549 it was > 10 µM (inactive); in the assay on HL-60 it was > 10 µM (inactive); with HCT-15, > 10 µM; in the assay with NCI-H23 it was > 10 µM (inactive); in the assay on A498 it was > 10 µM (inactive). Also, the GI50 in the assay with SR, in the assay on RXF 393, in the assay with COLO 205, in the assay on SK-OV-3, in the assay with MCF7 and in the assay with Malme-3M was > 10 µM (inactive) in each case. In addition, the GI50 in the assay with SF-268, with CCRF-CEM, with UO-31, in the assay on SK-MEL-28, with SN12C and in the assay with NCI/ADR-RES was > 10 µM (inactive) each time. Also, the GI50 in the assay on SK-MEL-5 was > 10 µM (inactive).

For `COc1cc2c(SCCN(C)C)nc3ccccc3c2c2ccccc12`, the GI50 in the assay with NCI-H522 is 1.68 µM (inactive); with A549, 1.77 µM (inactive); with HL-60 it was 0.193 µM (active); in the assay on HCT-15, 1.61 µM; in the assay with NCI-H23, 5.46 µM (inactive); in the assay on A498, 10.7 µM (inactive). Also, the GI50 was 1.7 µM (inactive) in the assay on SR; 1.93 µM (inactive) in the assay with RXF 393; 1.68 µM (inactive) in the assay with COLO 205; 10.4 µM (inactive) in the assay on SK-OV-3; 1.66 µM (inactive) with MCF7; 1.82 µM (inactive) in the assay on Malme-3M. Besides, the GI50 was 2.04 µM (inactive) in the assay on SF-268; 0.281 µM (active) in the assay with CCRF-CEM; 2.26 µM (inactive) in the assay on UO-31; 1.78 µM (inactive) with SK-MEL-28; 2.52 µM (inactive) in the assay with SN12C; 5.38 µM (inactive) with NCI/ADR-RES. The GI50 in the assay on SK-MEL-5 was 1.83 µM (inactive).

For the molecule `C=CCN1C(=O)CS/C1=N\NC(=O)CSc1nc2ccccc2c(=O)n1CC`, the GI50 is > 100 µM (inactive) with NCI-H522; > 100 µM (inactive) in the assay with A549; > 100 µM (inactive) with HL-60; > 100 µM with HCT-15; > 100 µM (inactive) with NCI-H23; 35 µM (inactive) in the assay on A498. Further, the GI50 with SR, in the assay on RXF 393, with COLO 205, in the assay with SK-OV-3, with MCF7 and in the assay on Malme-3M was > 100 µM (inactive) throughout. Also, the GI50 in the assay with SF-268 was > 100 µM (inactive); in the assay with CCRF-CEM it was > 100 µM (inactive); with UO-31 it was 41.9 µM (inactive); in the assay on SK-MEL-28 it was > 100 µM (inactive); in the assay on SN12C, > 100 µM (inactive); in the assay on NCI/ADR-RES, > 100 µM (inactive). In the assay with SK-MEL-5, the GI50 was > 100 µM (inactive).

For `Cc1cn([C@@H]2C[C@@H]2CO)c(=O)[nH]c1=O`, the GI50 with NCI-H522 was > 100 µM (inactive); in the assay with A549, > 100 µM (inactive); with HL-60 it was > 100 µM (inactive); in the assay on HCT-15 it was > 100 µM; with NCI-H23 it was > 100 µM (inactive); with A498, > 100 µM (inactive). Also, the GI50 in the assay on SR, in the assay with RXF 393, with COLO 205, with MCF7, with Malme-3M and in the assay on SF-268 was > 100 µM (inactive) throughout. In addition, the GI50 in the assay with CCRF-CEM, with UO-31, in the assay with SK-MEL-28, in the assay on SN12C, in the assay on NCI/ADR-RES and in the assay on SK-MEL-5 was > 100 µM (inactive) in each case.

`CCOC(=O)Nc1cc2c(c(N)n1)N=C(c1ccccc1)CN2`: the GI50 in the assay with NCI-H522 was < 0.01 µM (active); in the assay with A549, < 0.01 µM (active); with HL-60 it was < 0.0001 µM (active); in the assay on HCT-15, < 0.01 µM; in the assay with NCI-H23, < 0.01 µM (active); in the assay on A498, 0.31 µM (active). The GI50 with SR was < 0.01 µM (active); in the assay on RXF 393 it was < 0.0001 µM (active); in the assay with COLO 205, < 0.01 µM (active); with SK-OV-3, 0.0527 µM (active); with MCF7, 0.0317 µM (active); with Malme-3M, 16.4 µM (inactive). In addition, the GI50 in the assay on SF-268 is < 0.01 µM (active); in the assay with CCRF-CEM, < 0.01 µM (active); in the assay on UO-31, < 0.0194 µM (active); in the assay with SK-MEL-28, 14.5 µM (inactive); with SN12C it was < 0.01 µM (active); in the assay with NCI/ADR-RES, < 0.0001 µM (active). Besides, the GI50 with SK-MEL-5 is < 0.01 µM (active).

As to `NCc1ccccc1.O=C(O)NCc1ccccc1`, the GI50 was 21.8 µM (inactive) in the assay on NCI-H522; 34.9 µM (inactive) in the assay with A549; 26.7 µM (inactive) in the assay on HL-60; 30.8 µM in the assay on HCT-15; 27.5 µM (inactive) in the assay with NCI-H23; 29 µM (inactive) in the assay on A498. Also, the GI50 in the assay on SR was 0.682 µM (active); with RXF 393 it was 38.5 µM (inactive); in the assay on COLO 205 it was 19.3 µM (inactive); in the assay on SK-OV-3 it was 37.5 µM (inactive); with MCF7, 34.8 µM (inactive); with Malme-3M, 27.4 µM (inactive). The GI50 in the assay with SF-268 is 39.7 µM (inactive); with CCRF-CEM, 19.4 µM (inactive); in the assay with UO-31, 24.3 µM (inactive); in the assay with SK-MEL-28, 38.2 µM (inactive); in the assay with SN12C, 31.8 µM (inactive); in the assay with NCI/ADR-RES, 26.9 µM (inactive). In addition, the GI50 in the assay with SK-MEL-5 was 16.8 µM (inactive).

With `Cc1ccc(CC(=O)Nc2ccc(NC(=O)CNC(=O)/C=C/c3ccc(-c4ccccc4)cc3)cc2C(=O)c2ccccc2)cc1`, the GI50 in the assay on NCI-H522 is 5.13 µM (inactive); in the assay with A549, 2.03 µM (inactive); with HL-60, 7.45 µM (inactive); with HCT-15, 3.69 µM; in the assay on NCI-H23 it was 2.06 µM (inactive); in the assay with A498 it was 0.989 µM (active). For the same molecule, the GI50 in the assay with SR is 1.84 µM (inactive); in the assay on RXF 393, 2.38 µM (inactive); in the assay with COLO 205, 6.93 µM (inactive); in the assay with SK-OV-3, 10.7 µM (inactive); with MCF7 it was 1.82 µM (inactive); with Malme-3M it was 2.99 µM (inactive). Besides, the GI50 was 2.45 µM (inactive) in the assay on SF-268; 4.79 µM (inactive) in the assay on CCRF-CEM; 11.8 µM (inactive) in the assay on UO-31; 11.7 µM (inactive) in the assay on SK-MEL-28; 2.74 µM (inactive) in the assay on SN12C; 9.71 µM (inactive) in the assay on NCI/ADR-RES. The GI50 with SK-MEL-5 is 1.69 µM (inactive).
